Reference: patent US20230414560A1, “COMPOSITIONS AND METHODS FOR TREATING ECZEMA” (General Nutraceutical Technology LLC, priority 2022, published 2023)
In brackets after ≈: the same amount, converted by molar mass. Read-outs that look alike come from different tables or passages of the source.

Columns and labels:
[1] = cited from earlier work
Raw 264.7 cells = experiment: Raw 264.7 cytotoxicity (MTT assay); type: cell-based, murine; conditions: luteolin concentrations tested
Experimental: (§1) Cell viability of U266 was measured by trypan blue exclusion (Yang, Patil, et al., 2013). Cell suspension (10 uL) was mixed with trypan blue dye (10 uL), and viable cells and total cells counted with a hemocytometer. The cell viability was calculated using the equation: cell viability=(total number of viable cells)/(total number of cells). The viability of Raw 264.7 was evaluated using the MTT assay carried out as previously described (Liu, C. et al., 2015, Phytother Res, 29(6), 925-932). Cells were seeded into a 96-well plate at 2×10^4 cells/well, then different concentrations of SZT-I or active compounds were added to the plate. After 24 h, 50 μL MTT (2.0 mg/mL) was added to wells and the plate was incubated for a further 3 h. The supernatant was discarded, and the generated formazan was dissolved in dimethyl sulfoxide (DMSO) (200 μL). The absorbance of wells was detected at 590 nm.

PPARG = experiment: RT-PCR mRNA expression of hub target PPARG after LPS; type: cell-based, murine; conditions: inhibited by LPS
Experimental: (§2) Expressions of targets were measured by RT-PCR. After treatment, total RNA was collected from the esophagus. Reverse transcription was conducted to obtain the cDNA. The RT-PCR amplification was performed using SYBRTM Green Master Mix with primers. The primer sequences were listed as follows: m-TNF-α: F-[…] (SEQ ID NO: 3); R-[…] (SEQ ID NO: 4). m-Bcl2: F-[…] (SEQ ID NO: 5); R-[…] (SEQ ID NO: 6). m-IL1B: F-[…] (SEQ ID NO: 7); R-[…] TGTGTG (SEQ ID NO: 8). m-PPARG: F-[…] (SEQ ID NO: 9); R-[…] (SEQ ID NO: 10).

Bcl2 = experiment: RT-PCR mRNA expression of hub target Bcl2 after LPS; type: cell-based, murine; conditions: Raw cells
Experimental: as §2

U266 cells = experiment: U266 cell viability (trypan blue exclusion); type: cell-based, Human; conditions: at the concentrations reducing IgE
Experimental: as §1

IgE = IgE production by U266 myeloma cells (ELISA); type: cell-based, Human
Experimental: (§3) Human U266 myeloma cells were cultured in complete media containing RPMI-1640 medium with 10% fetal bovine serum (FBS), 0.5% penicillin-streptomycin, 1×10^−5 mol/L of 0-mercaptoethanol, and 1 mmol/L of sodium pyruvate at 37° C. in an incubator with 5% CO2. U266 cells were cultured at initial 2×10^5 cell/mL with SZT-I or active compounds at different concentration. Then the supernatants were collected after 6 days. The level of IgE was. measured by an enzyme-linked immunosorbent assay (ELISA) kit according to the manufacturer's instructions. RAW 264.7 murine macrophages (5×10^5 cell/mL) were cultured in DMEM medium supplemented with 10% FBS, and 0.5% penicillin-streptomycin at 37° C. under 5% CO2. SZT-I or active compounds at different concentrations and LPS (0.5 μg/mL) added to cells. Supernatants were harvested after 24 h and analyzed by ELISA for TNF-α (Mabtech, In vitro studies-Cell viability Inc, Cincinnati, Ohio). Eotaxin inhibitory assays were conducted by using human fetal lung fibroblast (HFL-1) cells. HFL-1 (CCL-153) cells were grown in F-12K medium (ATCC, Rockville, MD) containing 10% fetal bovine serum (Gibco BRL, Grand Island, NY) and 1% penicillin-streptomycin (BD Bio, San Jose, CA). […] Eotaxin levels were determined by using ELISA (R&D Systems) according to the directions of the manufacturer.

IL1B = experiment: RT-PCR mRNA expression of hub target IL1B after LPS; type: cell-based, murine; conditions: after LPS stimulation
Experimental: as §2

TNF-α [2] = experiment: RT-PCR mRNA expression of hub target TNF-α after LPS; type: cell-based, murine; conditions: after LPS stimulation
Experimental: as §2

TNF-α [3] = experiment: TNF-α production by LPS-stimulated RAW 264.7 cells (ELISA); type: cell-based, murine
Experimental: as §3

Compound	O.B. (oral bioavailability) ([1]; TCMSP database, Table 1)	also measured
COc1cc2oc3c4c(O)cc(O)cc4oc(=O)c3c2cc1OC [1,3-dihydroxy-8,9-dimethoxy-6-benzofurano[3,2-c]chromenone]	62.9	
COc1cc(O)cc2c1[C@@H]1Oc3c(ccc(O)c3CC=C(C)C)[C@@H]1CO2 [1-Methoxyphaseol-lidin]	69.98	
CC(C)=CCc1c(O)cc(O)c2c(=O)c(-c3ccc(O)c(O)c3)coc12 [3-(3,4-dihydroxyphenyl)-5,7-dihydroxy-8-(3-methylbut-2-enyl)chromone]	66.37	
CCCCC/C=C/C/C=C/CCCCCCCCCC(=O)O [11,14-eicosadienoic acid]	39.99	
O=C1C[C@H](c2ccc(O)cc2)Oc2cc(O)ccc21 [(2R)-7-hydroxy-2-(4-hydroxyphenyl) chroman-4-one]	71.12	
C=C(C)[C@@H]1CC[C@]2(C(=O)O)CC[C@]3(C)[C@H](CC[C@@H]4[C@@]5(C)CC[C@H](O)C(C)(C)[C@@H]5CC[C@]43C)[C@@H]12 [Betulinic acid]	55.38	
COc1cc(-c2cc(=O)c3c(O)cc(O)cc3o2)ccc1O [Chryseriol]	35.85	
Oc1cc(O)c2c(c1)O[C@H](c1ccc(O)c(O)c1)[C@@H](O)C2 [Cianidanol]	36.91	
CC/C=C/C/C=C/C/C=C/CCCCCCCC(=O)OCC [Ethyl linolenate]	46.1	
CCCCCCCC/C=C\CCCCCCCC(=O)OCC [Ethyl oleate]	32.4	
COc1ccc(-c2coc3cc(O)ccc3c2=O)cc1 [Formononetin]	69.67	
CC1(C)C=Cc2c(ccc3c2OC[C@@H](c2ccc(O)cc2O)C3)O1 [Glabridin]	53.25	
CC1(C)C=Cc2c(ccc(-c3coc4cc(O)ccc4c3=O)c2O)O1 [Glabrone]	52.51	
COc1c(CC=C(C)C)c(O)cc2oc(=O)c3c4ccc(O)cc4oc3c12 [Glycyrol]	90.78	
COc1ccc(C(=O)/C=C/c2ccc(O)cc2OC)cc1 [Glypallichalcone]	61.6	
O=C1/C(=C2\Nc3ccccc3C2=O)Nc2ccccc21 [Indigo]	38.2	
O=c1c(O)c(-c2ccc(O)cc2)oc2cc(O)cc(O)c12 [Kaempferol]	41.88	
CC1(C)C=Cc2c(ccc3cc(-c4ccc(O)cc4O)c(=O)oc23)O1 [Kanzonols W]	50.48	

Compound	O.B. (oral bioavailability) ([1]; TCMSP database, Table 1)	also measured
COc1c(/C=C/C(=O)c2ccc(O)cc2)ccc(O)c1O [Licochalcone B]	76.76	
CC(C)=CCc1c(O)cc(O)c2c(=O)c(-c3ccc(O)cc3)coc12 [Lupiwighteone]	51.64	
O=c1cc(-c2ccc(O)c(O)c2)oc2cc(O)cc(O)c12 [Luteolin]		cell toxicity on Raw 264.7 (Raw 264.7 cells): no significant cell toxicity; OB (oral bioavailability) ([1]; TCMSP database): 36.16%; mRNA expression of PPARG (PPARG): upregulated; mRNA expression of Bcl2 (Bcl2): increased the expression of Bcl2 significantly; cytotoxicity on U266 (U266 cells): without cytotoxicity; production of IgE (IgE; 10 μg/mL): strongly diminished; IC50 (IgE; Homo sapiens, U-266, 144 h, 6 days): ~4.81 µg/mL (≈ 16.8 µM); mRNA expression of IL1B (IL1B): reversed; mRNA expression of TNF-α (TNF-α [2]): reversed; IC50 (TNF-α [3]; Mus musculus, RAW264.7, Raw 264.7 cells, LPS 0.5 μg/mL, 24 h): 5.61 µg/mL (≈ 19.6 µM); production of TNF-α compared with quercetin and kaempferol (TNF-α [3]; Raw 264.7 cells stimulated by LPS, 20 μg/mL): significantly inhibited
CCCCC/C=C\C/C=C\CCCCCCCC(=O)OCC [Mandenol]	42	
C=C(CC[C@@H](C(=O)O)[C@H]1[C@H](O)C[C@@]2(C)C3=C(CC[C@]12C)[C@@]1(C)CC[C@H](OC(C)=O)C(C)(C)[C@@H]1CC3)C(C)C [Pachymic acid]	33.63	
O=c1c(O)c(-c2ccc(O)c(O)c2)oc2cc(O)cc(O)c12 [Quercetin]	46.43	
CC(C)=CC[C@H](O)C1=CC(=O)c2c(O)ccc(O)c2C1=O [Shikonin]	64.79	
CCC(/C=C/[C@H](C)[C@@H]1CC[C@@H]2[C@@H]3CC=C4C[C@@H](O)CC[C@]4(C)[C@@H]3CC[C@@]21C)C(C)C (stereo partly shown) [ZINC03978781]	43.83	
CN1CCc2cc3c(cc2[C@H]1[C@H]1OC(=O)c2c1ccc1c2OCO1)OCO3 [bicuculline]	69.67	
CC(C)=CCc1c(O)cc2c(c1O)C=C(c1ccc(O)cc1O)CO2 [dehydroglyasperins C]	53.82	
O=C1C[C@@H](c2ccc(O[C@@H]3O[C@H](CO)[C@@H](O)[C@H](O)[C@H]3O)cc2)Oc2cc(O)ccc21 [liquiritin]	65.69	
C[C@@]12C[C@@]3(O)O[C@H](O1)[C@@]1(COC(=O)c4ccccc4)[C@@H]3C[C@]12O[C@@H]1O[C@H](CO)[C@H](O)[C@H](O)[C@@H]1O [paeoniflorin_qt]	68.18	
COc1c(O)cc(O)c2c(=O)cc(-c3ccccc3)oc12 [wogonin]	30.68	
CC1=C(/C=C/C(C)=C/C=C/C(C)=C/C=C/C=C(C)/C=C/C=C(C)/C=C/C2=C(C)CCCC2(C)C)C(C)(C)CCC1 [β-carotene]	37.18	
Sitosterol	36.91	OB (oral bioavailability) ([1]; TCMSP database): 36.91%
Stigmasterol	43.83	OB (oral bioavailability) ([1]; TCMSP database): 43.83%
β-amyrin acetate		O.B. (oral bioavailability) ([1]; po): 42.06
β-sitosterol	36.91	OB (oral bioavailability) ([1]; TCMSP database): 36.91%
